In patent EP2106802A1, “Modified peptides as synthetic vaccines in amyloid-associated disease” (SIGMA-TAU Industrie Farmaceutiche Riunite S.p.A., priority 2008, dated 2009):
No end group written: not given here.

Assays:
[1] = phase II studies, patients who received the vaccine; cited from earlier work
[2] = active vaccination, APP transgenic mice; cited from earlier work
[3] = system: T lymphocytes expressing CXCR5 in PBMCs of healthy donors; assay: CXCR5 expression in T-lymphocytes after peptide stimulation (flow cytometry); type: cell-based, human; settings: for Percentage of T-lymphocytes expressing CXCR5, 1st and 3rd quartine: 1st and 3rd quartile of 10 donors; for expression of CXCR5 with respect to CTR: T-lymphocytes, Friedman test, result in words; for Percentage of T-lymphocytes expressing CXCR5: peptides 5ug/ml, 4 days after third stimulation; for Percentage of T-lymphocytes expressing CXCR5, Median: median of 10 donors, * P = <0,001 (Friedman)
Protocol: In order to evaluate the expression of a specific marker (CXCR5) in cultured […], the cells, 4 days after the third stimulation, were washed twice and stained with anti-CXCR5, in PBS supplemented with 0.5% FCS and 0.01%NaN3 at 4°C. After twenty minutes they were washed twice and analysed on FACSCanto flow cytometer (Becton Dickinson). The data were analyzed using FlowJo software (TreeStar, CA, USA).
Table 3. The CXCR5 expression measured as % of T lymphocytes expressing CXCR5 in PBMCs of healthy donors vs total lymphocytes (median, 1st and 3rd quartile) has been reported. Friedman Repeated Measures Analysis of Variance on Ranks has been performed. Column 1: number of different donors (Pz); column 2: the percentage of control (CTR) not challenged T lymphocytes expressing CXCR5; columns 3-12: the percentage of T lymphocytes expressing CXCR5 after the stimulation with different peptides.
CXCR5, a chemokine transmembrane receptor belonging to the CXC chemokine receptor family plays an essential role in B cell activation (Legler D.F., et al., J. Exp. Med., 1998, 187, 4, 655). The CXCR5 expression was measured as % of T-lymphocytes expressing CXCR5 versus total lymphocytes (median, 1st and 3rd quartile) and Friedman Repeated Measures Analysis of Variance on Ranks was performed.

Protocol for IFN-γ: To do this, the T-lymphocytes form peripheral blood mononuclear cells (PBMCs) response to Aβ[1-42] and Aβ[1-16], Aβ[1-16]-G, Aβ[1-16]+G, Aβ[13-28], Aβ[13-28]-G, Aβ[13-28]+G, Aβ[25-42], Aβ[25-42]-G, Aβ[25-42]+G was studied with the following experimental procedure:
In order to obtain mature dentritic cells, PBMCs from healthy donors were isolated by Ficoll-Hypaque gradient centrifugation (Pharmacia, Uppsala, Sweden). The cells were washed twice with PBS and finally were cultured at 10^6 cells/ml in RPMI 1640 supplemented with 10% (v/v) heat inactivated human serum (Bio Whittaker; Cambrex, Bioscience, Walkersville, MD Usa), 2mM L-glutamine, 20mM HEPES [N-2-hydroxyethylpiperazine-N'-2-ethanesulfonic acid], 1mM sodium pyruvate, 20mM non-essential amino acids, 55 µM 2-β-mercaptoethanol, 10 U/ml penicillin and streptomycin (Gibco and Invitrogen).
In order to obtain a pure culture of human peripheral blood monocytes, cells were purified by plastic adherence at 37°C for 30 minutes, followed by extensive washing with warm PBS to remove non-adherent cells. The monocytes were cultured in six-well plates (0,5 to 1,5 * 10^6 cells/m) in fresh complete medium supplemented with 1000U/ml of recombinant granulocyte-macrophage colony-stimulating factor (rGM-CSF) and 500U/ml interleukin-4 (IL-4, Pharmigen) for four days. The non-adherent mononuclear cells were washed repeatedly and cultured in 96-well round bottom plates (Nunc, Denmark) (10^6 cell/ml) in complete culture medium supplemented with interleukin-2 (IL-2; 5U/ml; Roche) for 4 days and used for subsequent studies. Monocytes-derived immature dendritic cells (DCs) were stimulated with the Aβ[1-16], Aβ[1-16]-G, Aβ[1-16]+G, Aβ[13-28], Aβ[13-28]-G, Aβ[13-28]+G, Aβ[25-42], Aβ[25-42]-G, Aβ[25-42]+G and Aβ[1-42] peptides (5ug/ml) for 1 day. For induction of dentritic cells (DC) maturation, the cells were stimulated with 50ng/ml TNFα (Pharmigen), 10ng/ml IL-6, 10ng/ml IL-1β, and 1µg/ml PGE2 for additional 2 days. Finally, they were cultured with autologous T-lymphocytes in 96-well flat bottom plates at a 1:4 ratio. A second stimulation with mature autologous monocyte-derived DC's previously stimulated with the peptides was performed at 10-14 days at the same ratios. Following further 10-14 days, lymphocytes were labelled with CFDA challenged with a third stimulation of monocyte-derived DC in the presence of peptides.
In order to evaluate the amount of IFN-γ produced by lymphocytes after the final third peptides stimulation the supernatants from cultured cells were harvested at 24 or 48 hr after the third stimulation. Cytokines were quantified by a standard-2-site sandwich enzyme-liked immunosorbent assay (ELISA). Abs for human IFN-γ were purchased from Pharmigen. Enhanced protein-binding ELISA plates (Nunc Maxisorb, Nunc Maxi, Roskilde, Denmark) were used.

Substance	patients who developed meningoencephalitis [1]	amyloid pathology [2]	production of IFN-γ in challenged T-lymphocytes (IFN-γ)	Percentage of T-lymphocytes expressing CXCR5, 1st and 3rd quartine [3]	expression of CXCR5 with respect to CTR [3]	Percentage of T-lymphocytes expressing CXCR5 ([3]; donor Pz1)	Percentage of T-lymphocytes expressing CXCR5 ([3]; donor Pz2)	Percentage of T-lymphocytes expressing CXCR5 ([3]; donor Pz3)	Percentage of T-lymphocytes expressing CXCR5 ([3]; donor Pz4)	Percentage of T-lymphocytes expressing CXCR5 ([3]; donor Pz5)	Percentage of T-lymphocytes expressing CXCR5 ([3]; donor Pz7)	Percentage of T-lymphocytes expressing CXCR5, Median [3]	Percentage of T-lymphocytes expressing CXCR5 ([3]; donor Pz6)	Percentage of T-lymphocytes expressing CXCR5 ([3]; donor Pz8)	Percentage of T-lymphocytes expressing CXCR5 ([3]; donor Pz9)	Percentage of T-lymphocytes expressing CXCR5 ([3]; donor Pz10)
AN1792: aggregated Aβ[1-42], first βA active vaccination (Pharmaceuticals Inc/Wyeth Pharmaceuticals)	about 6%	showed improvement in amyloid pathology														
GGNGGGIGGGMGGGVGIG [Seq.10]			statistically significative production of IFN-γ													
Seq.1: Aβ[1-42] synthetic peptide, neurotoxic β amyloid peptide [reference compound]			statistically significative production of IFN-γ	8.6-40.2%	statistically different expression of CXCR5 with respect to CTR	19.06%	15.07%	68.0%	0.09%	8,6%	13,3%	17.7* %				
Seq.3: Aβ[1-16] fragment modified by introduction of glycines in alternate positions, at odd positions (-G) (GAGFGHGSGYGVGHGK)			statistically significative production of IFN-γ	14.1-39.9%	statistically different expression of CXCR5 with respect to CTR	16.05%	20.05%	64.01%	2.09%	9,5%	14,7%	30.6* %	6,9%	40.06%	35.03%	36.00%
Seq.5: Aβ[13-28] fragment of the Aβ[1-42] sequence (HHQKLVFFAEDVGSNK)			statistically significative production of IFN-γ	8.5-30.4%	statistically different expression of CXCR5 with respect to CTR	15.05%	23.05%	12.08%	1.02%	8,5%	13,5%	14.5* %	7,4%	45.01%	33.00%	30.04%
Seq.6: Aβ[13-28] fragment modified by introduction of glycines in alternate positions, at odd positions (-G) (GHGKGVGFGEGVGSGK)			statistically significative production of IFN-γ	11.3-39.9%	statistically different expression of CXCR5 with respect to CTR	22.04%	23.03%	25.09%	0%	13,4%	14,6%	21.7* %	7,3%	43.03%	31.03%	29.05%
Seq.8: Aβ[25-42] fragment of the Aβ[1-42] sequence (GSNKGAIIGLMVGGVVIA)			statistically significative production of IFN-γ	8.2-36.7%	statistically different expression of CXCR5 with respect to CTR	19.00%	13.06%	64.04%	0.08%	8,2%	15,8%	17.4* %	7,3%	45.00%	36.07%	36.00%
Seq.9: Aβ[25-42] fragment modified by introduction of glycines in alternate positions, at odd positions (-G) (GSGKGAGIGLGVGGGVGA)			statistically significative production of IFN-γ	9.2-33.4%	statistically different expression of CXCR5 with respect to CTR	23.01%	15.02%	11.03%	0.08%	11,3%	13,4%	14.9* %	7,5%	61.07%	36.01%	34.06%
